Values joined by “and” are separate entries in the source; they are usually repeats but may differ in a detail not shown here. Equal entries are not always repeated. Structures can show the parent of a compound that is named as a salt. Where two headings read alike, the source gives them in different places.
How the values were obtained:
hH3R = conditions: cited from earlier work
hMAO B = conditions: cited from earlier work
[1] = MTT cell viability test on human astrocytes; format: cell-based; conditions: human; 24 h; at 0.15 and 0.25 mg/mL; read-out: decline in cell viability in comparison to the control level
Experimental: (§1) The studies were performed on a commercially-available astrocyte cell line isolated from human cerebral cortex (ScienCell Research Laboratories, San Diego, CA, USA; Cat no. 1800). The cells (passage 7–8) were seeded into a 96-well plate at an amount of 10,000 cells/well and kept in accordance with the ScienCell Research Laboratories’ protocol, i.e., in astrocyte medium supplemented with 2% fetal bovine serum, 10% astrocyte growth supplement and 1% penicillin/streptomycin solution, in an atmosphere with 5% CO2 at 37 °C. The cells were allowed to grow for 24 h and then treated with increasing concentrations of test compounds (0.01–0.25 mg/mL) for 24 and 72 h. Astrocytes in the medium on each plate (regardless of the factors tested) were used as a positive control.
(§2) The viability of the astrocyte cell line was determined calorimetrically using 3-(4,5-dimethylthazol-2-yl)-2,5-diphenyltetrazolium bromide (MTT; Sigma-Aldrich Chemical Co. Ltd., Saint Louis, MO, USA) as described earlier. […] After the incubation time (24 or 72 h) with examined drugs, 50 μL MTT solution (1 mg/mL) was added to each well of the plate for another 4 h. The method is based on the reduction of a yellow tetrazolium salt (MTT) into purple formazan crystals by mitochondrial succinate-tetrazolium reductase system which is metabolically active in viable cells. At the end of the experiment, the cells were treated with 100 μL dimethyl sulphoxide, which enabled the release of the reaction product.
(§3) The absorbance was measured at 570 nm using a BioTek EL×800 microplate reader (BioTek, Winooski, Vermont, USA) and results were expressed as a percentage of the absorbance measured in control cells. The obtained values were plotted against different concentrations of each compound to calculate the viability inhibition concentration at 50% (IC50) using GraphPad Prism 6.07 (GraphPad Software, Inc., San Diego, CA, USA). The experiment was repeated in quadruplicate.
(§4) For the cytotoxicity assessment in the MTT assays, each test drug was used at 8 concentrations (range: 0.01–0.25 mg/mL).

[2] = tested on: astrocyte cell line isolated from human cerebral cortex; experiment: MTT cell viability test on human astrocytes; format: cell-based; conditions: Astrocyte, human astrocytes, MTT
Experimental: as §1, §2, §3, §4

MAO B = molecular target: T1, MAO B (Homo sapiens, UniProt P27338); experiment: reversibility of MAO B inhibition (reactivation by excess p-tyramine, with/without preincubation); format: biochemical; conditions: inhibitor at IC80
T1 sequence (P27338 1-520): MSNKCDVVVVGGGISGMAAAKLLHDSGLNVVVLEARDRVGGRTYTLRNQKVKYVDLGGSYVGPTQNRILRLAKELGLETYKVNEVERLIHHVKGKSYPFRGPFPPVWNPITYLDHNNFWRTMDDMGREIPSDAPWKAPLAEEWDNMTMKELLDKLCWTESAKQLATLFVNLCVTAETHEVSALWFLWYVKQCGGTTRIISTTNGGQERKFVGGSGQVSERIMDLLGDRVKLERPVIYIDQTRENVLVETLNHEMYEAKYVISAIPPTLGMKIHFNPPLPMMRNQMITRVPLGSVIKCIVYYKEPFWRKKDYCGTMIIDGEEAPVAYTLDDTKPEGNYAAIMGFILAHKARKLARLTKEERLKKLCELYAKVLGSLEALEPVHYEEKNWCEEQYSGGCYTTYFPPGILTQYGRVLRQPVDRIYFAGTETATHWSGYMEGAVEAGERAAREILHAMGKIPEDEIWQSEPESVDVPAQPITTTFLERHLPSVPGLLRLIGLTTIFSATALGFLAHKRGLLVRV
Experimental: The reversibility of the MAO inhibition was tested as described in [6, 7]. […] Two variants of experiment were performed. […] After 22 min, the concentration of the substrate was increased to 200 µM and the signal was measured for 5 h.

[3] = parallel artificial membrane permeability assay (PAMPA); format: in vitro ADME; conditions: for Pe (×10^−6cm/s) ± SD: PAMPA, triplicate, breakpoint for permeable compounds Pe ≥ 1.5×10^−6 cm/s
[4] = molecular target: T2, human histamine H3 receptor (hH3R) (Homo sapiens, UniProt Q9Y5N1); experiment: [3H]Nα-methylhistamine radioligand binding assay in CHO-K1 cells stably expressing hH3R; parameters: expressed in transfected cells; host or cells: CHO-K1; conditions: CHO-K1 cells; [3H]Nα-methylhistamine; mean ± SEM of three independent experiments; read-out: hH3R Ki [nM] ± SEM
Experimental: (§5) Affinity to hH3R stably expressed in CHO-K1 [6] or HEK293 [11] cells was evaluated in a radioligand binding assay as described previously. Briefly, 10 mM stock solutions of the test compounds in DMSO were prepared. Each compound was tested at eight concentrations ranging from 10^−5 to 10^−12 M (final concentration). All assays were carried out in duplicate. […] The radioactivity was counted in MicroBeta 2 [6] or MicroBeta Trilux counter (PerkinElmer). Data were fitted to a one-site curve-fitting equation with Prism 6 (GraphPad Software, San Diego, CA, USA) and Ki values were calculated from IC50 values (from at least three experiments performed in duplicates) according to the Cheng−Prusoff equation [12].
(§6) Affinity for hH3R was evaluated in a radioligand binding assay using [^3H]N^α-methylhistamine as radioligand in CHO K1 or HEK293 cells stably expressing hH3R as described previously. […] Then, those with at least 50% inhibition for hH3R were selected for further testing (Ki evaluation). […] Compounds were tested in the binding assay in HEK293 cells.

human MAO B (hMAO B) [5] = molecular target: T3, human MAO B (hMAO B) (Homo sapiens, UniProt P27338); experiment: fluorometric MAO assay (p-tyramine substrate); format: biochemical; conditions: for IC50: fluorometric MAO assay, mean ± SEM of 2–4 independent experiments; for inhibition at 1 µM: mean of two independent experiments, read-out: hMAO B % of Inh.
T3 sequence (P27338 1-520): T1 sequence (P27338 1-520)
Experimental: The precise method was described in [6]. First, compounds 4–32 were screened for hMAO B inhibitory activity at 1 μM concentration by the fluorometric method. Para-tyramine (200 μM) was used as a substrate for the enzyme and safinamide (1 μM) was used as a reference compound. […] Each experiment was performed in duplicate.
All compounds were first screened for hMAO B inhibitory activity at the concentration of 1 μM. […] Based on the results, we selected compounds 9 and 13 for further analysis.

human MAO B (hMAO B) [6] = molecular target: T3, human MAO B (hMAO B); experiment: modality of hMAO B inhibition (Michaelis-Menten / Lineweaver-Burk); format: biochemical
Experimental: Modality of hMAO B inhibition was evaluated for compounds 9 and 13 and the reference safinamide according to the method described previously. Three concentrations of inhibitors, corresponding to their IC20, IC50 and IC80 values, were used. Each experiment was performed in triplicate. KM and Vmax values were calculated from Michaelis–Menten curves by nonlinear regression from the substrate. Lineweaver–Burk plots were calculated using linear regression in GraphPad Prism 6.07 (GraphPad Software, San Diego, CA, USA).
For testing modality of enzyme inhibition, we used three concentrations of inhibitors that corresponded to their IC20, IC50 and IC80 values. Substrate (p-tyramine) was used at concentrations: 0.05, 0.1, 0.5, 1.0, 1.5 and 2.0 mM.

[7] = molecular target: T2, human histamine H3 receptor (hH3R); parameters: expressed in transfected cells; conditions: HEK293 cells; read-out: hH3R Ki [nM] [95%CI]; cited from earlier work
[8] = molecular target: T2, human histamine H3 receptor (hH3R); experiment: [3H]Nα-methylhistamine radioligand binding assay in HEK293 cells stably expressing hH3R; parameters: expressed in transfected cells; conditions: mean within 95% CI of three independent experiments
Experimental: as §5, §6

[9] = inhibitor at IC20, IC50, IC80, p-tyramine 0.05–2.0 mM

T2 sequence (Q9Y5N1 whole entry): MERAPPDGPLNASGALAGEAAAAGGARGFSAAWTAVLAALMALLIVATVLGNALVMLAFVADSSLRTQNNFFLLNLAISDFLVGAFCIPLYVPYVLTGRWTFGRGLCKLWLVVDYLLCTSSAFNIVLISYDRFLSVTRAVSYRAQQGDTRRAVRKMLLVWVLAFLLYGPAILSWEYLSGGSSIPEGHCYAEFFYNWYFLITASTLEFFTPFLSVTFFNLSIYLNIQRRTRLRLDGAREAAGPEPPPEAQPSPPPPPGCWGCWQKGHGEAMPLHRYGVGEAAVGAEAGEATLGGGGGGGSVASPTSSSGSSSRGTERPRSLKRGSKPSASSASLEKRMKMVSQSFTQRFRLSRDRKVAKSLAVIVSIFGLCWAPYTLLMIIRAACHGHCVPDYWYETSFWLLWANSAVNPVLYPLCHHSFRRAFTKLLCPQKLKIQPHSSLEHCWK

SMILES	Ki (hH3R) [µM]	melting point [°C]	IC50 (human MAO B (hMAO B) [5]) [µM]	Ki [8]	further results
O=C1/C(=C/c2ccc(OCCCN3CCCCC3)cc2)Cc2cc(OCc3ccc(Br)cc3)ccc21 [Compound 1]	0.0065	–	–	–	–
CCC(C)(C)c1ccc(OCCCN2CCCC2)cc1 [Compound 3]	0.063	–	–	–	IC50 (hMAO B): 0.0045 µM
CCCN(CCC)CCCOc1ccc(C(C)(C)C)cc1.O=C(O)C(=O)O [Compound 9, 3-(4-(tert-Butyl)phenoxy)-N,N-dipropylpropan-1-amine hydrogen oxalate]	–	139 to 142	0.002	–	viability at 24 h [1]: > 95%; IC50 ([2]; 24 h incubation, read-out: IC50 24 h): 144 µM and 55 µg/mL; IC50 ([2]; 72 h incubation, read-out: IC50 72 h): 123 µM and 47 µg/mL; effect of 30 min preincubation on inhibition (preincubated vs non-preincubated) (MAO B): did not show differences between the variants; reversibility of MAO B inhibition (MAO B; excess p-tyramine 200 µM): reversible inhibition; permeability in PAMPA, in words [3]: not able to cross the artificial membrane; Pe (×10^−6cm/s) ± SD [3]: ^---- -- ^c; Ki [4]: 323 ± 73 nM; Affinity (free enzyme vs enzyme-substrate complex) (human MAO B (hMAO B) [6]): Free enzyme ≈ enzyme-substrate complex; Mode of inhibition from kinetic values and LB plot (human MAO B (hMAO B) [6]): noncompetitive inhibition; Lines on LB plot (human MAO B (hMAO B) [6]; Lineweaver–Burk double-reciprocal plot): Lines intersect to the left of y-axis directly on x-axis; app. KM (human MAO B (hMAO B) [6]; [9]): No effect ^a; app. Vmax (human MAO B (hMAO B) [6]; [9]): ↓ curvilinearly with ↑ [I]; app. Vmax/app. KM (human MAO B (hMAO B) [6]; [9]): ↓ curvilinearly with ↑ [I]
CC1CCCCN1CCCOc1ccc(C(C)(C)C)cc1 (stereo not shown) [Compound 10, 1-(3-(4-(tert-Butyl)phenoxy)propyl)-2-methylpiperidine hydrogen oxalate]	–	–	–	–	Ki [7]: < 100 nM
CC(=O)c1ccc(OCCCN2CCCCC2)cc1.O=C(O)C(=O)O [Compound 18, 1-(4-(3-(Piperidin-1-yl)propoxy)phenyl)ethan-1-one hydrogen oxalate]	–	157 to 159	–	15 nM	inhibition at 1 µM (human MAO B (hMAO B) [5]): 19%
CC(C)c1ccc(OCCCN2CCCCC2)cc1.O=C(O)C(=O)O [Compound 19, 1-(3-(4-Isopropylphenoxy)propyl)piperidine hydrogen oxalate]	–	112 to 115	0.021 ± 0.003	52 nM	–
CCc1ccc(OCCCN2CCCCC2)cc1.O=C(O)C(=O)O [Compound 20, 1-(3-(4-Ethylphenoxy)propyl)piperidine hydrogen oxalate]	–	144 to 146	0.07 ± 0.002	62 nM and 61 nM	–
Cc1ccc(OCCCN2CCCCC2)cc1.O=C(O)C(=O)O [Compound 21, 1-(3-(p-Tolyloxy)propyl)piperidine hydrogen oxalate]	–	160 to 162	0.755 ± 0.106	43 nM	–
Fc1ccc(OCCCN2CCCCC2)cc1.O=C(O)C(=O)O [Compound 22, 1-(3-(4-Fluorophenoxy)propyl)piperidine hydrogen oxalate]	–	132 to 136	–	> 80 nM and 93 nM	inhibition at 1 µM (human MAO B (hMAO B) [5]): 29%
Clc1ccc(OCCCN2CCCCC2)cc1.O=C(O)C(=O)O [Compound 23, 1-(3-(4-chlorophenoxy)propyl)piperidine hydrogen oxalate]	–	158 to 160	1.06 ± 0.037	> 80 nM and 83 nM	–
CCC(C)(C)c1ccc(OCCCN2CCCCC2)cc1 [DL77]	0.037	–	–	–	IC50 (hMAO B): 0.019 µM
Cn1c(=O)c2c(ncn2C)n(C)c1=O [caffeine, reference compound]	–	–	–	–	Pe (×10^−6cm/s) ± SD [3]: 15.1 ×10^−6cm/s
O=C(c1ccc(OCCCc2cnc[nH]2)cc1)C1CC1 [ciproxifan]	0.046	–	–	–	IC50 (hMAO B): 2 µM

Source: article PMC9607599, “Dual Targeting Ligands—Histamine H3 Receptor Ligands with Monoamine Oxidase B Inhibitory Activity—In Vitro and In Vivo Evaluation” (Pharmaceutics, 2022)
